In patent US10307431B2, “Lyophilized cyclophosphamide composition and methods of preparation thereof” (priority 2017, dated 2019):
Read-outs that look alike come from different tables or passages of the source.

Legend:
[1] = background, prior art, cited from earlier work
[2] = bulk solution maintained at 5° C. to 15° C., such as 12° C.±3° C., for an extended period of time

O=P1(N(CCCl)CCCl)NCCCO1 (stereo not drawn) [anhydrous form, cyclophosphamide anhydrous]
stability as reported [1]: highly unstable

O=P1(N(CCCl)CCCl)NCCCO1 (stereo not drawn) [cyclophosphamide, 2-[bis(2-chloroethyl)amino]tetrahydro-2H-1,3,2-oxazaphosphorine 2-oxide]
degradation in bulk solution [2]: significant degradation

O=P1(N(CCCl)CCCl)NCCCO1 (stereo not drawn) [monohydrate drug form, cyclophosphamide monohydrate]
stability as reported ([1]; monohydrate): stable
